Patent US20040038933A1, “Pharmaceutical compositions, dose and method for treating malaria” (priority 2000, published 2004)

How the values were obtained:
P. falcipanini = assay: Recovery from fever in patients with severe malaria, combined administration of CRDS and artesunate; format: in vivo; details: CRDS 4 mg/kg i.v. infusion every 8 hours for 4 days, artesunate i.v. 120 mg then 60 mg every 12 hours up to 600 mg, 22 patients per group, FIG. 1
Experimental: Sodium curdlan sulfate (hereinafter referred to as “CRDS”; molecular weight 80,000; sulfur content 14.5%) was used as a sulfated polysaccharide and artesunate (dihydroartemisinin hemisuccinate, see formula I, J. Med. Chem., 30, 2147 (1987)) was used as an artemisinin compound.
(§1) CRDS was used as a solution containing 100 mg of CRDS, 50 mg of mannitol, 18 mg of dibasic sodium phosphate and phosphate buffer (pH 6.5) per vial.
(§2) CRDS was intravenously administered (infusion) at 4 mg/kg every 8 hours in a total daily dose of 12 mg/kg for 4 days.
(§3) Physiological saline was used as a placebo and administered according to the same schedule as for CRDS.
Artesunate (60 mg/vial) was intravenously administered to both CRDS and placebo groups at a dose of initially 120 mg, and then 60 mg every 12 hours up to a total dose of 600 mg (according to the current standard therapy in the Bangkok Hospital for Tropical Diseases). If possible, tablets containing 50 mg of artesunate were orally administered.
Fifty patients were randomly divided into a CRDS group and a placebo group. The patients were males and females at the ages of 12-65 in whom P. falcipanini was found. The patients had symptoms of severe malaria (with hypoglycemia corrected) and excluded those having symptoms of cerebral malaria. […]
The time required for each patient to recover from fever after starting the treatment was recorded. […]

[1] = tested on: asexual malarial parasites; assay: Recovery from coma in patients with severe/cerebral malaria, combined administration of CRDS and artesunate; format: in vivo; details: male patients in a coma, Glasgow Coma Score, CRDS 4 mg/kg i.v. infusion every 8 hours for 4 days, artesunate i.v. up to 600 mg, 13 patients per group, FIG. 2
Experimental: CRDS (molecular weight 80,000; sulfur content 14.5%) was used as a sulfated polysaccharide and artesunate was used as an artemisinin compound.
as §1, §2, §3
Artesunate (60 mg/vial) was intravenously administered to both CRDS and placebo groups at a dose of initially 120 mg, and then 60 mg every 12 hours up to a total dose of 600 mg. If possible, tablets containing 50 mg of artesunate were orally administered.
Coma was determined by Glasgow Coma Score.
For each of the CRDS group and the placebo group, 13 patients completed this protocol. The time required for each patient to recover from coma was recorded. Fisher's exact test was used to compare the number of patients who recovered from coma within 120 hours between both groups (CRDS group and placebo group).

C[C@H]1[C@H](OC(=O)CCC(=O)O)O[C@@H]2O[C@@]3(C)CC[C@H]4[C@H](C)CC[C@@H]1[C@@]24OO3 [artesunate, dihydroartemisinin hemisuccinate]
time required for all the patients to recover from fever (P. falcipanini): 9 days | time required for all the patients to recover from coma [1]: 9 days
